Results reported in patent US20090203737A1, “Pyrrole Derivatives as Positive Allosteric Modulators of Metabotropic Receptors” (priority 2005, published 2009).

How the values were obtained:
mGluR5 [1] = target: T1, mGluR5 (Rattus norvegicus, UniProt P31424); conditions: Liu et al (2006), Zhang et al (2005); cited from earlier work
T1 construct: positive allosteric modulators of mGluR5 receptors in native preparations; endogenous in cells; host or cells: primary cortical astrocytes from Sprague-Dawley rat embryos (E16-19)
T1 sequence (P31424 21-1203): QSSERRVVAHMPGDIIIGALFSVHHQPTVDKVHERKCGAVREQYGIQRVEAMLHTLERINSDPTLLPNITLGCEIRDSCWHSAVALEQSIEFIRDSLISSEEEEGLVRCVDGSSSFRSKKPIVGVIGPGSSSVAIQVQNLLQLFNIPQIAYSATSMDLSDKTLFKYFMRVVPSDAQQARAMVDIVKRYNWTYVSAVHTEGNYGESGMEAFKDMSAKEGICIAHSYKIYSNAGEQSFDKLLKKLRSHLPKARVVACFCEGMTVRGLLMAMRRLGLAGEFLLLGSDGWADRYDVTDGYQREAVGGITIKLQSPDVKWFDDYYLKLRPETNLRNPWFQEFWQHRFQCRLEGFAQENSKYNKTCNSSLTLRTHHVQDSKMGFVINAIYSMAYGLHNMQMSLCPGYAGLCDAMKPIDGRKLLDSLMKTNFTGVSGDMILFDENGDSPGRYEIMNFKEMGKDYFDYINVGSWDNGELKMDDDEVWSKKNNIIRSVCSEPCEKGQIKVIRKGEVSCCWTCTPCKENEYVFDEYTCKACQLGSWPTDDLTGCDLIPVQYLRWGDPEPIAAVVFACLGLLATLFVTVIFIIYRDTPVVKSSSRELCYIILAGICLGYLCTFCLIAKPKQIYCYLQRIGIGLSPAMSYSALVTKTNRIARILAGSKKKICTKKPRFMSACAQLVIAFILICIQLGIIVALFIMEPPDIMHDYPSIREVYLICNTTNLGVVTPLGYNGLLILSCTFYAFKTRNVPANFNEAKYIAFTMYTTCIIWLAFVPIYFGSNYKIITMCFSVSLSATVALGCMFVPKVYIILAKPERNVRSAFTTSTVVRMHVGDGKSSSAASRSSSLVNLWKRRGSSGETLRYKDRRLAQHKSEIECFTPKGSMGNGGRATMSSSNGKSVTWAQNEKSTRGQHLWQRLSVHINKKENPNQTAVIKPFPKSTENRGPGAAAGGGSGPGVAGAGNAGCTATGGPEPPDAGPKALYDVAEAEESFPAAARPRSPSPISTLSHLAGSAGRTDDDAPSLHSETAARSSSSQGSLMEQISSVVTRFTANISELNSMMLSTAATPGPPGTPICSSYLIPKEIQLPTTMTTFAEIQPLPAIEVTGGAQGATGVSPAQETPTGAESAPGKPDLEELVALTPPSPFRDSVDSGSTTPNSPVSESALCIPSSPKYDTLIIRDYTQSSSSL

rat mGluR5 receptor = target: T2, rat mGluR5 receptor (Rattus norvegicus, UniProt P31424); assay: mGluR5 assay on HEK-expressing rat mGluR5 (fluorescent cell based Ca2+ mobilization assay); conditions: for activation of rat mGluR5 receptors: HEK-rat mGluR5 cell line, without co-addition of glutamate or mGluR5 agonist; for EC50: HEK-293 cells stably expressing rat mGluR5, no co-addition of glutamate, mean of at least three independent experiments in duplicate, read-out: Ca++ Flux (mean EC50)
T2 construct: expressed in transfected cells
T2 sequence (P31424 21-1171 isoform P31424-2 limits assumed): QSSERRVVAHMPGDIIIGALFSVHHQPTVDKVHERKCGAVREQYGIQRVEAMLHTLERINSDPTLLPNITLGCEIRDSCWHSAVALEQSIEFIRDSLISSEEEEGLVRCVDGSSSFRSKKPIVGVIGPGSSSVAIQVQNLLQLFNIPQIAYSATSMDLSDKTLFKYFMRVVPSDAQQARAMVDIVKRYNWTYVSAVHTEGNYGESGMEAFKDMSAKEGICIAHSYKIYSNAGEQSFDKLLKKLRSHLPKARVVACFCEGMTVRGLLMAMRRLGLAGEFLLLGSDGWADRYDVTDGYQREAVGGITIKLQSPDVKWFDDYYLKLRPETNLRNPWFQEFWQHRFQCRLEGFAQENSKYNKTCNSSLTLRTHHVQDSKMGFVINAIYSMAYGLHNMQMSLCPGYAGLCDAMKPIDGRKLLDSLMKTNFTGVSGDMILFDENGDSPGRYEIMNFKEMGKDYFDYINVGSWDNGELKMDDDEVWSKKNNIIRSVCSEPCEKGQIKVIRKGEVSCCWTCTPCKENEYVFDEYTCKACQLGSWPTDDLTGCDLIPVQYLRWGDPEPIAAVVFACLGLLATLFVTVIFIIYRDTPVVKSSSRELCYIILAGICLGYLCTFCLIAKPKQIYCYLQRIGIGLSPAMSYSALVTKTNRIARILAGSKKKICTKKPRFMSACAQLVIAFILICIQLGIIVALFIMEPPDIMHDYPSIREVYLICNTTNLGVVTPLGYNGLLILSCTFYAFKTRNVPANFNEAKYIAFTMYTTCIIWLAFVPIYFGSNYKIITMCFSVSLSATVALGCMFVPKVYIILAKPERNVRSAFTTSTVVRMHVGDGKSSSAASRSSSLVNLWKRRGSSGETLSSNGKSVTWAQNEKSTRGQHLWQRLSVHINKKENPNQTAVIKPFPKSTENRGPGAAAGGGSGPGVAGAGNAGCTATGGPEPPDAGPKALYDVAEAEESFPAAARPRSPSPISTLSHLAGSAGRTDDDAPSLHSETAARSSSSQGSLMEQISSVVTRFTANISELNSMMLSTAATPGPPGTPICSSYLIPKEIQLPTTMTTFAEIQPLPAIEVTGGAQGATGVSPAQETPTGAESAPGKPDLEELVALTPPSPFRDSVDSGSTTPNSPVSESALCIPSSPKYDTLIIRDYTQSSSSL
Protocol: Positive functional expression of HEK-293 cells stably expressing rat mGluR5 receptor was determined by measuring intracellular Ca^2+ changes using a Fluorometric Imaging Plate Reader (FLIPR, Molecular Devices, Sunnyvale, Calif.) in response to glutamate or selective known mGluR5 agonists and antagonists. Rat mGluR5 RT-PCR products in HEK-293 cells were sequenced and found 100% identical to rat mGluR5 Genbank reference sequence (NM_017012). HEK-293 cells expressing rmGluR5 were maintained in media containing DMEM, dialyzed Fetal Bovine Serum (10%), Glutamax™ (2 mM), Penicillin (100 units/ml), Streptomycin (100 μg/ml), Geneticin (100 μg/ml) and Hygromycin-B (40 μg/ml) at 37° C./5% CO2.
After one day of incubation, cells were washed with assay buffer containing: 142 mM NaCl, 6 mM KCl, 1 mM […], 1 mM CaCl2, 20 mM HEPES, 1 g/L glucose, 0.125 mM sulfinpyrazone, pH 7.4. After 60 min of loading with 4 uM Fluo-4 (TefLabs, Austin, Tex.), the cells were washed three times with 50 μl of PBS Buffer and resuspended in 45 μl of assay Buffer. The plates were then transferred to a Fluorometric Imaging Plate Reader (FLIPR, Molecular Devices, Sunnyvale, Calif.) for the assessment of intracellular calcium flux. After monitoring the baseline fluorescence for 10 seconds, increasing concentrations of representative compound (from 0.01 to 60 μM) of the present invention diluted in Assay Buffer (15 μl of 4× dilutions) was added to the cell. The final DMSO concentration in the assay was 0.3%. In each experiment, fluorescence was then monitored as a function of time for 3 minutes and the data analyzed using Microsoft Excel and GraphPad Prism. Each data point was also measured two times.
Under these experimental conditions, this HEK-rat mGluR5 cell line is able to directly detect positive allosteric modulators without the need of co-addition of glutamate or mGluR5 agonist.
The concentration-response curves of representative compounds of the present invention were generated using the Prism GraphPad software (Graph Pad Inc, San Diego, USA). The curves were fitted to a four-parameter logistic equation:
(Y=Bottom+(Top−Bottom)/(1+10̂((LogEC50−X)*Hill Slope)
allowing determination of EC50 values.
The Table 1 below represents the mean EC50 obtained from at least three independent experiments of selected molecules performed in duplicate.

mGluR5 [2] = target: T1, mGluR5; assay: mGluR5 binding assay ([3H]-MPEP, rat brain membranes); conditions: 3 nM [3H]-MPEP, 1 h at 4° C.
Text: Activity of compounds of the invention was examined following a radioligand binding technique using whole rat brain and tritiated 2-methyl-6-(phenylethynyl)-pyridine ([^3H]-MPEP) as a ligand following similar methods than those described in Gasparini et al. (2002) Bioorg. Med. Chem. Lett. 12:407-409 and in Anderson et al. (2002) J. Pharmacol. Exp. Ther. 303 (3) 1044-1051.
Cortices were dissected out from brains of 200-300g Sprague-Dawley rats (Charles River Laboratories, L'Arbresle, France). Tissues were homogenized in 10 volumes (vol/wt) of ice-cold 50 mM HEPES-NaOH (pH 7.4) using a Polytron disrupter (Kinematica AG, Luzern, Switzerland) and centrifuged for 30 min at 40,000 g. (4° C.). […] Protein concentration was determined by the Bradford method (Bio-Rad protein assay, Reinach, Switzerland) with bovine serum albumin as standard.
Membranes were thawed and resuspended in binding buffer containing 20 mM HEPES-NaOH, 3 mM MgCl2, 3 mM CaCl2, 100 mM NaCl, pH 7.4. […] Radioactivity was determined by liquid scintillation spectrometry using a 96-well plate reader (TopCount, Perkin-Elmer, Downers Grove, USA).
The inhibition curves were generated using the Prism GraphPad program (Graph Pad Software Inc, San Diego, USA). […] The mean of IC50 obtained from at least three independent experiments of selected molecules performed in duplicate were calculated.

Question: For `Fc1cccc(/C=N/N=C/c2cccc(F)c2)c1` [DFB, reference compound], which “activity in rat cortical astrocytes culture in the absence of added glutamate” value (from here on “activity”) (mGluR5 [1]) is on record?
Answer: inactive

Question: What about the “activation of rat mGluR5 receptors” value (rat mGluR5 receptor) of the same compound?
Answer: activating

Question: For `O=C(Nc1ccc(Cl)cc1CN1C(=O)c2ccccc2C1=O)c1ccccc1O` [CPPHA, reference compound], which “activity” value (mGluR5 [1]) is on record?
Answer: inactive

Question: And the “activation of rat mGluR5 receptors” value (rat mGluR5 receptor)?
Answer: activating

Question: For `N#Cc1cccc(C(=O)Nc2cc(-c3ccccc3)nn2-c2ccccc2)c1` [CDPPB, reference compound], which “activity” value (mGluR5 [1]) is on record?
Answer: inactive

Question: And the “activation of rat mGluR5 receptors” value (rat mGluR5 receptor)?
Answer: activating

Question: Which results are given for `O=C(c1ccc(F)cc1)N1CCC[C@H](c2noc(-c3cc(C(F)(F)F)c[nH]3)n2)C1` [Example 76, (4-Fluoro-phenyl)-{(S)-3-[5-(4-trifluoromethyl-1H-pyrrol-2-yl)-[1,2,4]oxadiazol-3-yl]-piperidin-1-yl}-methanone]?
Answer: EC50 (rat mGluR5 receptor): > 10 µM; melting point: 183.5 °C

Question: Which results are given for `O=C(c1ccc(F)c(F)c1)N1CCCC(c2noc(-c3ncc[nH]3)n2)C1` (stereo not drawn) [Example 18, (3,4-Difluoro-phenyl)-{3-[5-(1H-imidazol-2-yl)-[1,2,4]oxadiazol-3-yl]-piperidin-1-yl}-methanone]?
Answer: EC50 (rat mGluR5 receptor): 1 to 10 µM; melting point: 148.5 to 148.9 °C

Question: For `Cc1cc(F)ccc1C(=O)N1CCCC(c2noc(-c3ccc[nH]3)n2)C1` (stereo not drawn) [Example 9, (4-Fluoro-2-methyl-phenyl)-{3-[5-(1H-pyrrol-2-yl)-[1,2,4]oxadiazol-3-yl]-piperidin-1-yl}-methanone], which EC50 (rat mGluR5 receptor) is on record?
Answer: 1 to 10 µM

Question: And the melting point?
Answer: 203 °C

Question: Which EC50 (rat mGluR5 receptor) does the source give for `N#Cc1c[nH]c(-c2nc([C@H]3CCCN(C(=O)c4ccc(F)cc4)C3)no2)c1` [Example 72, (4-Fluoro-phenyl)-{(S)-3-[5-(4-cyano-1H-pyrrol-2-yl)-[1,2,4]oxadiazol-3-yl]-piperidin-1-yl}-methanone] here?
Answer: 1 to 10 µM

Question: What about the melting point of the same compound?
Answer: 204.8 to 205.6 °C

Question: With `O=C(c1ccc(F)cc1)N1CCC[C@H](c2nc(-c3cc(F)c[nH]3)no2)C1` [Example 50, (4-Fluoro-phenyl)-{(S)-3-[3-(4-fluoro-1H-pyrrol-2-yl)-[1,2,4]oxadiazol-5-yl]-piperidin-1-yl}-methanone] as the compound, how does the EC50 (rat mGluR5 receptor) read?
Answer: < 1 µM

Question: What about the melting point of the same compound?
Answer: 146.5 to 147.2 °C

Question: Which EC50 (rat mGluR5 receptor) does the source give for `O=C(c1ccc(F)cc1)N1CCC[C@H](c2nc(-c3ccc[nH]3)no2)C1` [Example 1, (4-Fluoro-phenyl)-{(S)-3-[3-(1H-pyrrol-2-yl)-[1,2,4]oxadiazol-5-yl]-piperidin-1-yl}-methanone] here?
Answer: < 1 µM

Question: And the melting point?
Answer: 130 to 135 °C

Question: What about the IC50 (mGluR5 [2]) of the same compound?
Answer: < 30 µM

Question: Which EC50 (rat mGluR5 receptor) does the source give for `Cc1oncc1C(=O)N1CCC[C@H](c2nc(-c3ccc[nH]3)no2)C1` [Example 20, (5-Methyl-isoxazol-4-yl)-{(S)-3-[3-(1H-pyrrol-2-yl)-[1,2,4]oxadiazol-5-yl]-piperidin-1-yl}-methanone] here?
Answer: > 10 µM

Question: And the melting point?
Answer: 125 to 127 °C

Question: With `O=C(c1ccc(F)c(F)c1)N1CCC[C@H](c2noc(-c3ccc[nH]3)n2)C1` [Example 10, (3,4-Difluoro-phenyl)-{(S)-3-[5-(1H-pyrrol-2-yl)-[1,2,4]oxadiazol-3-yl]-piperidin-1-yl}-methanone] as the compound, how does the EC50 (rat mGluR5 receptor) read?
Answer: < 1 µM

Question: What about the melting point of the same compound?
Answer: 168 °C

Question: Which EC50 (rat mGluR5 receptor) does the source give for `Cc1c[nH]c(-c2noc([C@H]3CCCN(C(=O)c4ccc(F)cc4)C3)n2)c1` [Example 31, (4-Fluoro-phenyl)-{(S)-3-[3-(4-methyl-1H-pyrrol-2-yl)-[1,2,4]oxadiazol-5-yl]-piperidin-1-yl}-methanone] here?
Answer: < 1 µM

Question: And the melting point?
Answer: 188 to 190 °C

Question: For `O=C(c1ccc(F)nc1)N1CCCC(c2noc(-c3cc4ccccc4[nH]3)n2)C1` (stereo not drawn) [Example 23, (6-Fluoro-pyridin-3-yl)-{3-[5-(1H-indol-2-yl)-[1,2,4]oxadiazol-3-yl]-piperidin-1-yl}-methanone], which EC50 (rat mGluR5 receptor) is on record?
Answer: 1 to 10 µM

Question: What about the melting point of the same compound?
Answer: 163.1 to 164.3 °C

Question: For `O=C(c1ccc(F)cc1)N1CCC[C@H](c2noc(-c3ccc[nH]3)n2)C1` [Example 22, (4-Fluoro-phenyl)-{(S)-3-[5-(1H-pyrrol-2-yl)-[1,2,4]oxadiazol-3-yl]-piperidin-1-yl}-methanone], which EC50 (rat mGluR5 receptor) is on record?
Answer: < 1 µM

Question: What about the melting point of the same compound?
Answer: 181 °C

Question: Which results are given for `O=C(c1ccc(F)cc1)N1CCC[C@@H](c2nc(-c3ccc[nH]3)no2)C1` [Example 37, (4-Fluoro-phenyl)-{(R)-3-[3-(1H-pyrrol-2-yl)-[1,2,4]oxadiazol-5-yl]-piperidin-1-yl}-methanone]?
Answer: EC50 (rat mGluR5 receptor): 1 to 10 µM; melting point: 132 to 133 °C

Question: Which EC50 (rat mGluR5 receptor) does the source give for `Cc1oncc1C(=O)N1CCCC(c2noc(-c3cc4ccccc4[nH]3)n2)C1` (stereo not drawn) [Example 26, {3-[5-(1H-Indol-2-yl)-[1,2,4]oxadiazol-3-yl]-piperidin-1-yl}-(5-methyl-isoxazol-4-yl)-methanone] here?
Answer: 1 to 10 µM

Question: And the melting point?
Answer: 175.6 to 177.2 °C

Question: For `Cc1c[nH]c(-c2noc([C@H]3CCCN(C(=O)c4ccc(F)c(F)c4)C3)n2)c1` [Example 32, (3,4-Difluoro-phenyl)-{(S)-3-[3-(4-methyl-1H-pyrrol-2-yl)-[1,2,4]oxadiazol-5-yl]-piperidin-1-yl}-methanone], which EC50 (rat mGluR5 receptor) is on record?
Answer: < 1 µM

Question: What about the melting point of the same compound?
Answer: 166 to 167 °C

Question: What does the source list for `O=C(c1ccc(F)cc1)N1CCCC(c2noc(-c3cc4ccccc4[nH]3)n2)C1` (stereo not drawn) [Example 11, (4-Fluoro-phenyl)-{3-[5-(1H-indol-2-yl)-[1,2,4]oxadiazol-3-yl]-piperidin-1-yl}-methanone]?
Answer: EC50 (rat mGluR5 receptor): 1 to 10 µM; melting point: 199 to 201 °C

Question: Which EC50 (rat mGluR5 receptor) does the source give for `O=C(c1ccc(F)c(F)c1)N1CCC[C@H](c2nc(-c3cc4ccccc4[nH]3)no2)C1` [Example 15, (3,4-Difluoro-phenyl)-{(S)-3-[3-(1H-indol-2-yl)-[1,2,4]oxadiazol-5-yl]-piperidin-1-yl}-methanone] here?
Answer: > 10 µM

Question: What about the melting point of the same compound?
Answer: 93 to 94 °C
